What all share (type): in vivo, brown guinea pig
Data set [1] deals with pigmentation induced by ultraviolet. In words: Ultraviolet-induced skin pigmentation in brown guinea pigs, oral β-NMN (Example 1). As to conditions: for ΔL value at ultraviolet irradiation site: oral 500 mg/kg body weight once a day. The text has this:
(§1) Brown guinea pigs (Kw1: line A-1, supplied from Kiwa Laboratory Animals Co., Ltd.) used for the subsequent experiment were bred under SPF environment throughout the entire experimental period. As in a case of humans, it is known that pigmentation of the brown guinea pigs of Kw1: line A-1 is caused by ultraviolet irradiation.
(§2) First, an unanesthetized brown guinea pig was fixed on a fixed plate in an abdominal position, and the back skin was sheared with an electric hair clipper and shaved with an electric shaver. Among the shaved area of the back skin, a region obtained by cutting out a region corresponding to the irradiation site by attaching a tape for bookbinding to an adhesive fabric stretchable bandage (ELASTOPORE No. 50, Nichiban Co., Ltd.) was attached on a site other than the ultraviolet irradiation site, and thereby the region other than the radiation site was light-shielded. Further, the eyes of the guinea pig were also light-shielded from ultraviolet by attaching lint cloth with the adhesive fabric stretchable bandage. Thereafter, ultraviolet (UVB) irradiation was performed from a distance of 40 cm using five SE lamps (wavelength of 250 to 350 nm, FL20S E, Toshiba Corporation) attached to an ultraviolet irradiation apparatus (Y-798-II, Orion Electric Co., Ltd.).
(§3) Regarding oral administration, a solution in which β-NMN (Oriental Yeast Co., Ltd.) was dissolved in injection water (Otsuka Pharmaceutical Factory, Inc.) was orally administered forcedly using a disposable syringe made of polypropylene (Terumo Corporation) attached with a catheter (a nutrition catheter manufactured by JMS Co., Ltd.). […] A dosage was calculated from a body weight value on an administration day or a day close to the administration day, and the dosage was 5 mL/kg.
Effects of […] on pigmentation induced by ultraviolet were examined using brown guinea pigs.
First, six brown guinea pigs were divided into a group administered β-NMN (NMN group) and a group administered injection water (control group). A day performed this group dividing was considered day 0 of administration, and from the next day, the β-NMN solution or injection water was orally administered to the guinea pigs of each group once a day for 42 days. The β-NMN solution was administered at a dosage of 500 mg/kg body weight. […]
(Measurement of pigmentation) L values (brightness) of the skin of the ultraviolet irradiation site of each guinea pig were measured by using Chroma Meter (CR-300, Konica Minolta, Inc.) on the first irradiation day (day 0), and on days 14, 21, and 28. […] On days 0, 14 and 21, L values were measured before the ultraviolet irradiation, and on day 28, L values were measured in the morning. […]

Data set [2] in a line: Body weight of brown guinea pigs during oral β-NMN administration (Example 1). As to conditions: for Body weight: oral 500 mg/kg. As for the experimental part:
First, six brown guinea pigs were divided into a group administered β-NMN (NMN group) and a group administered injection water (control group). A day performed this group dividing was considered day 0 of administration, and from the next day, the β-NMN solution or injection water was orally administered to the guinea pigs of each group once a day for 42 days. The β-NMN solution was administered at a dosage of 500 mg/kg body weight.
A body weight of each guinea pig was measured with an electronic balance in the morning once a week from the first administration day. The measurement was performed before the irradiation on the irradiation day, and before the administration on the β-NMN administration day.

In data set [3] the test system is pigmentation induced by ultraviolet. In words: Ultraviolet-induced skin pigmentation in brown guinea pigs, oral and transdermal β-NMN (Example 2). The conditions noted are these: for ΔL value at ultraviolet irradiation site: 28 days from first irradiation.
Source text: as §1, §2, §3
Effects of β-NMN on pigmentation induced by ultraviolet were examined using brown guinea pigs.
Ethanol (lot number: DSM5187, Wako Chemical Co., Ltd.), 1,3-butanediol (lot number: TWQ 6672, Wako Pure Chemical Industries, Ltd.), and injection water (lot number: K5F71, Otsuka Pharmaceutical Factory, Inc.) were mixed at a ratio of 1:1:8 (a volume ratio), and used as a solvent. A solution dissolved β-NMN in this solvent at a concentration of 0.5% by mass was used as a β-NMN-containing external preparation.
First, six brown guinea pigs were divided into a group orally administered β-NMN and a group not administered β-NMN. […]

As for `NC(=O)c1ccc[n+]([C@@H]2O[C@H](COP(=O)([O-])O)[C@@H](O)[C@H]2O)c1` [NMN, Nicotinamide mononucleotide], the “ΔL value at ultraviolet irradiation site” value in data set [1] (day 14 after first irradiation) stood at 8.28; in data set [1] (day 21 after first irradiation), 8.99; in data set [1] (day 28 after first irradiation) it was 9.55; in data set [3] (NMN oral administration group (oral 500 mg/kg, solvent only on skin)), 6.01; in data set [3] (NMN transdermal & oral administration group (oral 500 mg/kg plus 0.05 mL of 0.5% by mass external preparation per site)), 5.20. Also, the “Pigmentation compared to the control group” value in data set [1] (oral 500 mg/kg body weight once a day for 42 days) is “pigmentation was inhibited”. Moreover, the Body weight in data set [2] (0 days after first administration) was 405 ± 22 g; in data set [2] (1 day after first administration), 408 ± 23 g; in data set [2] (8 days after first administration) it was 431 ± 23 g; in data set [2] (15 days after first administration), 462 ± 33 g; in data set [2] (22 days after first administration), 497 ± 34 g; in data set [2] (29 days after first administration), 529 ± 29 g. In addition, the Body weight in data set [2] (36 days after first administration) is given as 551 ± 35 g; in data set [2] (43 days after first administration), 584 ± 33 g. Also, the “Body weight difference versus control group” value in data set [2] (oral 500 mg/kg once a day for 42 days) is on record as “no significant difference in body weight”. In addition, in data set [3] (oral administration only), the “Pigmentation compared with the control group” value is listed as “pigmentation was inhibited”. Besides, in data set [3] (transdermal administration in addition to oral administration), the “Pigmentation compared with only oral administration” value is “pigmentation was further inhibited”.
